Test results from PMC9837035 (Nature Communications, 2023).
Values joined by “and” are separate entries in the source; they are usually repeats but may differ in a detail not shown here. Equal values may be shown once. Read-outs that look alike come from different tables or passages of the source.

How the values were obtained:
[1] = test system: BCL11A- or ZBTB7A-knockout HUDEP-2 cells; experiment: RT-qPCR of BGLT3, β- and γ-globin in BCL11A- or ZBTB7A-knockout HUDEP-2 cells; type: cell-based, human
Procedure: Total cellular RNA was prepared using the Tissue Total RNA Mini Kit (FAVORGEN), and cDNA was synthesized using ReverTra Ace Master Mix (TOYOBO). Expression of target genes was analyzed using THUNDERBIRD SYBR qPCR Mix (TOYOBO) on a CFX Connect Real Time System (Bio-Rad). The qPCR data were acquired on CFX Maestro (Bio-Rad). Primers are listed in Supplementary Table 10. GAPDH was used as a reference. Primers were purchased from INTEGRATED DNA TECHNOLOGIES or FASMAC.

[2] = test system: BCL11A occupancy at the β-globin locus; experiment: ChIP-qPCR with antibody against BCL11A in HUDEP-2 cells; type: cell-based, human; parameters: ChIP-qPCR, antibody against BCL11A: scale not given here; conditions: for occupancies of BCL11A in the BGLT3 gene region: HUDEP-2, 4 days
Procedure: A total of 0.5–1 × 10^6 cells were cross-linked with 1% formaldehyde for 10 min at room temperature and the reaction was quenched with 250 mM glycine. Cross-linked cells were then lysed with buffer 1 (15 mM Tris-HCl (pH 7.5), 60 mM KCl, 15 mM NaCl, 5 mM MgCl2, 0.1 mM EGTA, 300 mM sucrose, […], 1 mM phenylmethanesulfonyl fluoride (PMSF), 0.5% NP40) and incubated on ice for 10 min. After centrifugation, the pellet was re-suspended in buffer 2 (15 mM Tris-HCl (pH 7.5), 60 mM KCl, 15 mM NaCl, 5 mM MgCl2, 0.1 mM EGTA, 1.2 M sucrose, […], 1 mM PMSF). After centrifugation, the pellet was then re-suspended in MNase buffer (50 mM Tris-HCl (pH 7.5), 1 mM CaCl2, 4 mM MgCl2, 320 mM sucrose, 1 mM PMSF) and digested with 100 U of micrococcal nuclease (Takara) at 37 °C for 15 min. After the reaction was quenched with 20 mM EDTA, the supernatants were incubated with antibodies (anti-H3K9me2 (1:100), Abcam, ab1220; anti-H3K9ac (1:100), Active Motif, 39917; Goat anti-IgG (H + L) (1:100), Jackson Immunoresearch; anti-BCL11A (1:100), Novus Biologicals, NB600-261; anti-ZBTB7A (1:100), Thermo Fisher Scientific, eBioscience (13E9); anti-CHD3 (1:100), Novus Biologicals, NB-100-60412; anti-CHD4 (1:100), abcam, ab240640) and Protein A/G PLUS-Agarose (Santa Cruz Biotechnology) overnight at 4 °C. Beads were washed sequentially once with the following buffers: wash buffer A (50 mM Tris-HCl (pH 7.5), 75 mM NaCl, 10 mM EDTA, 0.01% NP40), wash buffer B (50 mM Tris-HCl (pH 7.5), 100 mM NaCl, 10 mM EDTA, 0.01% NP40), wash buffer C (50 mM Tris-HCl (pH 7.5), 175 mM NaCl, 10 mM EDTA, 0.01% NP40). After treatment with proteinase K in buffer 4 (20 mM Tris-HCl (pH 8.0), 10 mM EDTA, 400 mM NaCl, 0.5% SDS) at 56 °C overnight, DNA was purified using the FastGene Gel/PCR Extraction Kit (Nippon Genetics). The samples were analyzed by qPCR. Primers are listed in Supplementary Table 10. ChIP-seq experiments were performed by GENEWIZ. Tracks were visualized using the integrative genome viewer. ChIP-seq analysis were analyzed Cutadapt (V1.9.1) for QC, FastQC (V0.10.1) for QC assessment, Bowtie (V2.1.0) for mapping, strand cross-correlation (SCC) for ChIP quality assessment, MACS2 for peak calling, and R package ChIPpeakAnno for Peak annotated.

[3] = biological target: T1, MLL1 (Homo sapiens, UniProt Q03164); experiment: Radioisotope-based methyltransferase assay (selectivity); type: biochemical
T1 construct: purchased Reaction Biology

[4] = biological target: T2, MLL3 (Homo sapiens, UniProt Q8NEZ4); experiment: as above; type: biochemical
T2 construct: purchased Reaction Biology

[5] = biological target: T3, SMYD2 (Homo sapiens, UniProt Q9NRG4); experiment: as above; type: biochemical
T3 construct: purchased Reaction Biology

[6] = biological target: T4, SUV420H1TV2 (Homo sapiens, UniProt Q4FZB7); experiment: as above; type: biochemical
T4 construct: purchased Reaction Biology

[7] = test system: HbF in HUDEP-2 cells; experiment: Flow cytometry of HbF-expressing HUDEP-2 cells; type: cell-based, human; parameters: Flow cytometric analysis in HUDEP-2 cells: unit not given here; conditions: for Percentage of HbF-expressing cells: HUDEP-2, 11 days
Procedure: For the analysis of HbF expression, HUDEP-2 cells or cells differentiated from human CD34 + progenitor cells were fixed in 0.05% glutaraldehyde for 10 min, then washed two times with PBS containing 2% FBS (PBS/2% FBS) and permeabilized with 0.1% Triton X-100 (prepared in PBS/2% FBS; Life Technologies) for 5 min. After washing with PBS/2% FBS two times, cells were stained with allophycocyanin (APC)-conjugated HbF antibody (1:1, Invitrogen, MHFH05). One million cells were incubated with the HbF–APC antibody for 30 min in the dark at 4 °C. Cells were washed twice with PBS/2% FBS, then suspended in 0.2 ml PBS/2% FBS and analyzed using a FACSCalibur (Becton Dickinson). To assess erythroid differentiation, hematopoietic cells differentiated from human CD34 cells were stained with FITC-conjugated CD45 antibody (1:1, Becton Dickinson, 555482) and APC-conjugated glycophorin A antibody (1:20, Becton Dickinson, 551336). Stained cells were suspended in 0.2 ml PBS/2% FBS containing 1 μg/ml propidium iodide (Sigma) and analyzed by FACSCalibur. The results of flow cytometer were further analyzed by FlowJo software (Becton Dickinson).

[8] = BCL11AKO, relative to Parental DMSO = 1, replicate values
[9] = ZBTB7AKO, relative to Parental DMSO = 1, replicate values

T3 sequence (Q9NRG4 whole entry): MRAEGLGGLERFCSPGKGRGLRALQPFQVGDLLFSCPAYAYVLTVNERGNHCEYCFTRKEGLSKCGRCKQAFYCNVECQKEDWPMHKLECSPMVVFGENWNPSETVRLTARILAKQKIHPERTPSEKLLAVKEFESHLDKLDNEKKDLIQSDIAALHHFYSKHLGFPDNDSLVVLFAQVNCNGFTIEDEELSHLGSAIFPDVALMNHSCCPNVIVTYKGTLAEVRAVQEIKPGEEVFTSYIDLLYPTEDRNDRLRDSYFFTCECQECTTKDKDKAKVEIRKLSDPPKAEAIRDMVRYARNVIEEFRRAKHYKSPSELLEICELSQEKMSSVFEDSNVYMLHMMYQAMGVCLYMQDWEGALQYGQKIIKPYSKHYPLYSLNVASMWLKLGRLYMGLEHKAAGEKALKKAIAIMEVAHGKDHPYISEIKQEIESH
T4 sequence (Q4FZB7 1-393 isoform Q4FZB7-2): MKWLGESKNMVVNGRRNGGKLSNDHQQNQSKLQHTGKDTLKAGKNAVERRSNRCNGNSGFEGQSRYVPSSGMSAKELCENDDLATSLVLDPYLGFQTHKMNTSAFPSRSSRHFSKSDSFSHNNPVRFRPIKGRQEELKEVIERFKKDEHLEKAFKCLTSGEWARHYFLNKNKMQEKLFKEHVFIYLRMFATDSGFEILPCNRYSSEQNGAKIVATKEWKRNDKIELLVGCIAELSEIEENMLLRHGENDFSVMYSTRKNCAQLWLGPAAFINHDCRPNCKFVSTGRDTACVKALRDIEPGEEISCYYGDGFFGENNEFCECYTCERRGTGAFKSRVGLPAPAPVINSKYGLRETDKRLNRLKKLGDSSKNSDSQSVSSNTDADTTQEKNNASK

SMILES: NC(=O)NO [Hydroxyurea, hydroxyurea]
- β-globin in hydroxyurea-treated BCL11A-knockout HUDEP-2 cells [1, 8]: 0.8331 and 0.6286 and 0.8387
- γ-globin in hydroxyurea-treated BCL11A-knockout HUDEP-2 cells [1, 8]: 30.3873 and 19.1624 and 29.0192
- BGLT3 expression ([1]; Left panel, BCL11AKO HUDEP-2 cells treated with hydroxyurea, Parental DMSO = 1, 3 replicates): 4.086 and 4.522 and 3.744
- BGLT3 expression ([1]; Left panel, ZBTB7AKO HUDEP-2 cells treated with hydroxyurea, Parental DMSO = 1, 3 replicates): 7.409 and 8.146 and 6.041
- BGLT3 expression ([1]; Right panel, BCL11AKO HUDEP-2 cells treated with hydroxyurea, DMSO of the same cells = 1, 3 replicates): 0.9046 and 1.002 and 0.9124
- BGLT3 expression ([1]; Right panel, ZBTB7AKO HUDEP-2 cells treated with hydroxyurea, DMSO of the same cells = 1, 3 replicates): 1.218 and 1.432 and 1.28
- β-globin in hydroxyurea-treated ZBTB7A-knockout HUDEP-2 cells [1, 9]: 0.1643 and 0.09952 and 0.1527
- γ-globin in hydroxyurea-treated ZBTB7A-knockout HUDEP-2 cells [1, 9]: 16.1366 and 9.002 and 13.1897
- ChIP-qPCR, antibody against BCL11A ([2]; BGLT3 locus, HUDEP-2 cells treated with hydroxyurea, replicates 1a-3b): 0.8842 and 1.017 and 0.83 and 0.5175 and 0.6913 and 0.7867
- ChIP-qPCR, antibody against BCL11A ([2]; HS1, HUDEP-2 cells treated with hydroxyurea, replicates 1a-3b): 1.064 and 0.5507 and 0.5814 and 1.256 and 1.601 and 1.4807
- ChIP-qPCR, antibody against BCL11A ([2]; HS2, HUDEP-2 cells treated with hydroxyurea, replicates 1a-3b): 0.08682 and 2.447 and 1.693 and 2.52 and 0.949 and 0.09517
- ChIP-qPCR, antibody against BCL11A ([2]; HS3, HUDEP-2 cells treated with hydroxyurea, replicates 1a-3b): 1.655 and 3.8122 and 0.8818 and 0.7067 and 0.6435 and 2.151
- ChIP-qPCR, antibody against BCL11A ([2]; HS4, HUDEP-2 cells treated with hydroxyurea, replicates 1a-3b): 0.8173 and 1.536 and 0.3618 and 0.975 and 1.091 and 0.6403
- occupancies of BCL11A in the BGLT3 gene region [2]: decreased
- ChIP-qPCR, antibody against BCL11A ([2]; β-globin promoter, HUDEP-2 cells treated with hydroxyurea, replicates 1a-3b): 0.5672 and 1.0178 and 0.4614 and 1.054 and 0.8774 and 0.8041
- ChIP-qPCR, antibody against BCL11A ([2]; γ-globin promoter, HUDEP-2 cells treated with hydroxyurea, replicates 1a-3b): 0.6219 and 0.3788 and 0.8175 and 0.7872 and 0.7026 and 0.3349
- ChIP-qPCR, antibody against BCL11A ([2]; δ-globin promoter, HUDEP-2 cells treated with hydroxyurea, replicates 1a-3b): 0.5737 and 0.8872 and 0.4941 and 0.547 and 0.6567 and 0.5438

SMILES: Nc1ncnc2c1ncn2[C@@H]1O[C@H](CSCC[C@H](N)C(=O)O)[C@@H](O)[C@H]1O [SAH, S-(5'-Adenosyl)-L-homocysteine, reference compound]
- IC50 ([3]; MLL1, 1 μM SAM): 1.3 µM
- IC50 ([3]; MLL1, RK-701 in duplicate): 1.31 µM
- IC50 ([4]; MLL3, 1 μM SAM): 49.7 µM
- IC50 ([4]; MLL3, RK-701 in duplicate): 49.7 µM
- IC50 ([5]; SMYD2, 1 μM SAM): 1.9 µM
- IC50 ([5]; SMYD2, RK-701 in duplicate): 1.91 µM
- IC50 [6]: 126 µM

SMILES: Cc1c(C(=O)N[C@H](CCC2CC2)C(=O)Nc2ccc(C#N)cc2)[nH]c2c1C(=O)CC(C)(C)C2 [RK-0133114]
- Flow cytometric analysis in HUDEP-2 cells ([7]; 3 μM): 7.47 and 5.8 and 9.04
- HbF induction ([7]; HUDEP-2): failed to increase HbF
- Percentage of HbF-expressing cells ([7]; 3 μM): 7.4±1.3%

SMILES: Cc1c(C(=O)NC(CCC2CC2)C(=O)Nc2ccc(C#N)cc2)[nH]c2c1C(=O)CC(C)(C)C2 (stereo not drawn) [RK-701]
- IC50 ([3]; MLL1, 1 μM SAM): > 100 µM
- IC50 ([3]; MLL1, RK-701 in duplicate): > 100 µM
- IC50 ([4]; MLL3, 1 μM SAM): > 100 µM
- IC50 ([4]; MLL3, RK-701 in duplicate): > 100 µM
- IC50 ([5]; SMYD2, 1 μM SAM): > 100 µM
- IC50 ([5]; SMYD2, RK-701 in duplicate): > 100 µM
- IC50 ([6]; SUV420H1TV2, 1 μM SAM): > 100 µM
- IC50 ([6]; SUV420H1TV2, RK-701 in duplicate): > 100 µM
- Flow cytometric analysis in HUDEP-2 cells ([7]; 0.01 μM): 6.04 and 5.19 and 7.23
- Flow cytometric analysis in HUDEP-2 cells ([7]; 0.03 μM): 7.86 and 6.03 and 10.4
- Flow cytometric analysis in HUDEP-2 cells ([7]; 0.1 μM): 15.5 and 13.3 and 20.6
- Flow cytometric analysis in HUDEP-2 cells ([7]; 0.3 μM): 34.6 and 30.8 and 42.2
- Flow cytometric analysis in HUDEP-2 cells ([7]; 1 μM): 55.6 and 50.6 and 60.1
- Flow cytometric analysis in HUDEP-2 cells ([7]; 3 μM): 42.6 and 54.1 and 68.6
- Percentage of HbF-expressing cells ([7]; 0.01 μM): 6.2±0.8%
- Percentage of HbF-expressing cells ([7]; 0.03 μM): 8.1±1.8%
- Percentage of HbF-expressing cells ([7]; 0.1 μM): 16.5±3.1%
- Percentage of HbF-expressing cells ([7]; 0.3 μM): 35.9±4.7%
- Percentage of HbF-expressing cells ([7]; 1 μM): 55.4±3.9%
- Percentage of HbF-expressing cells ([7]; 3 μM): 55.1±10.6%
- BGLT3 expression ([1]; BCL11A KO HUDEP-2 cells treated with RK-701, parental DMSO = 1, replicates 1a-3b): 6.941 and 5.75 and 6.485 and 4.87 and 5.182 and 3.691
- BGLT3 expression ([1]; BCL11A knockout HUDEP-2): could no longer increase BGLT3 expression
- BGLT3 expression ([1]; ZBTB7A KO HUDEP-2 cells treated with RK-701, parental DMSO = 1, replicates 1a-3b): 4.7282 and 5.8001 and 5.631 and 4.239 and 5.932 and 4.543
- BGLT3 expression ([1]; ZBTB7A knockout HUDEP-2): prevented RK-701 from increasing BGLT3 expression
- ChIP-qPCR, antibody against BCL11A ([2]; BGLT3 locus, HUDEP-2 cells treated with RK-701, replicates): 0.6314 and 0.7848 and 0.4856 and 0.8245 and 0.6776 and 0.5891
- ChIP-qPCR, antibody against BCL11A ([2]; HS1, HUDEP-2 cells treated with RK-701, replicates): 0.3627 and 0.3768 and 0.661 and 0.2587 and 0.1661 and 0.2446
- ChIP-qPCR, antibody against BCL11A ([2]; HS2, HUDEP-2 cells treated with RK-701, replicates): 0.4595 and 0.8137 and 0.6566 and 1.335 and 1.936 and 0.6063 and 1.138 and 0.7851
- ChIP-qPCR, antibody against BCL11A ([2]; HS3, HUDEP-2 cells treated with RK-701, replicates): 0.4555 and 0.6595 and 0.2297 and 0.7103 and 0.2788 and 0.5275
- ChIP-qPCR, antibody against BCL11A ([2]; HS4, HUDEP-2 cells treated with RK-701, replicates): 0.3987 and 0.3554 and 0.6174 and 0.2389
- occupancies of BCL11A in the BGLT3 gene region [2]: significantly suppressed
- ChIP-qPCR, antibody against BCL11A ([2]; β-globin promoter, HUDEP-2 cells treated with RK-701, replicates): 0.04573 and 0.1654 and 0.1051 and 0.1187 and 0.1597 and 0.09847 and 0.07533
- ChIP-qPCR, antibody against BCL11A ([2]; γ-globin promoter, HUDEP-2 cells treated with RK-701, replicates): 0.1313 and 0.1159 and 0.3396 and 0.07171 and 0.121 and 0.0314
- ChIP-qPCR, antibody against BCL11A ([2]; δ-globin promoter, HUDEP-2 cells treated with RK-701, replicates): 0.018 and 0.05206 and 0.04359 and 0.0353 and 0.01403 and 0.04746
